Drawing on PubChem BioAssay (NCI), this text covers GI50 and TGI for eight compounds.

Several values for one entry are separate records, joined by “and”; a condition that tells them apart may be missing. Equal values may be shown once.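 Assay format: 96-well plates, 48-hour exposure. GI50 is the concentration that inhibits growth by half. TGI marks complete inhibition of growth.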 Some results are limits rather than exact numbers.

What all share (experiment): NCI-60 cell line screen, 48 h
The test system of assay [1] is ACHN renal.
In assay [2] the test system is SNB-75 CNS.
The subject of assay [3] is LOX IMVI melanoma.
Assay [4] deals with U251 CNS.
Assay [5] relates to HT29 colon.
In assay [6] the test system is K-562 leukemia.
In assay [7] the test system is 786-0 renal.
The test system of assay [8] is SK-MEL-28 melanoma.
The subject of assay [9] is M14 melanoma.
Assay [10] deals with SW-620 colon.

As for `O=C(OC[C@@H]1CO1)c1cccc2c(=O)c3ccccc3[nH]c12`, the GI50 in assay [1] was 107 nM; in [2], 288 nM; in [3] it was 80.7 nM; in assay [4] it was 279 nM; in [5] it was 0.311 µM; in assay [6] it was 240 nM. Moreover, the GI50 in assay [7] is 0.349 µM; in assay [8], 0.396 µM; in assay [9] it was 0.344 µM; in [10] it was 64.9 nM. Moreover, the TGI is 0.305 µM in [1]; 1.49 µM in [2]; 0.48 µM in [3]; 3.69 µM in assay [4]; 3.17 µM in [5]; greater than 100 µM in assay [6]. The TGI came out at 2.69 µM in [7], 2.07 µM in assay [8], 1.65 µM in assay [9] and 1.16 µM in assay [10].

Consider `OCC#Cc1ccccc1C#Cc1ccc(C#Cc2ccccc2)cc1`, for which the GI50 is 18900 nM in assay [1]; 32400 nM in assay [2]; 24600 nM in assay [3]; 19900 nM in assay [4]; 12.7 µM in assay [5]; 3920 nM in assay [6]. In addition, the GI50 in [7] is 23.5 µM; in [8], 38.3 µM; in assay [9], 17.5 µM; in [10], 17200 nM. The TGI is 37 µM in [1]; greater than 100 µM in assay [2]; greater than 100 µM in [3]; 38.6 µM in assay [4]; 33.5 µM in [5]; 26.3 µM in assay [6]. Also, the TGI in assay [7] is 55.9 µM; in assay [8] it was greater than 100 µM; in assay [9] it was 43.9 µM; in assay [10] it was 44.4 µM.

Turning to `COc1c(O)c2c3c(c1OC)-c1ccccc1CC3N(S(=O)(=O)c1ccc(C)cc1)CC2` (stereo not drawn), the GI50 in assay [1] is 2910 nM; in assay [2], 933 nM; in assay [3], 2590 nM; in assay [4], 1690 nM; in assay [5] it was 9.34 µM; in assay [6], 223 nM. For the same compound, the GI50 in [7] is 4.89 µM; in assay [8], 2.51 µM; in [9], 1.81 µM; in assay [10], 1600 nM. Also, the TGI is greater than 50 µM in assay [1]; 3.92 µM in [2]; greater than 50 µM in [3]; greater than 50 µM in assay [4]; 21 µM in assay [5]; 7.65 µM in [6]. For the same compound, the TGI in assay [7], in assay [8], in assay [9] and in [10] was greater than 50 µM in each case.

As for `O=C1CCS/C(=N/S(=O)(=O)c2ccc(N3N=C4c5ccccc5CC4C3c3cccs3)cc2)N1Cc1ccccc1` (stereo not drawn), the GI50 in [1] is 14900 nM; in [2] it was 30200 nM; in [3] it was 13600 nM; in [4], 14400 nM; in assay [5] it was 37 µM; in assay [6], greater than 100000 nM. The GI50 in [7] is 17.1 µM; in assay [8], 42.1 µM; in assay [9], 15.3 µM; in assay [10] it was 24000 nM. The TGI was 32.9 µM in [1]; 78.7 µM in assay [2]; 27.2 µM in [3]; 32.1 µM in [4]; greater than 100 µM in [5]; greater than 100 µM in assay [6]. Moreover, the TGI was 32.4 µM in assay [7], greater than 100 µM in assay [8], 30.1 µM in [9] and 84.6 µM in assay [10].

For the compound `Cc1ccnc(Nc2ccc([N+](=O)[O-])c(NCCN3CCOCC3)n2)c1`, the GI50 in assay [1] was 7.44 nM; in assay [2], 2.43 nM; in assay [3] it was 5.2 nM; in assay [4] it was 5.24 nM; in assay [5] it was 0.00438 µM; in [6], 3.68 nM. Besides, the GI50 in assay [7] was 0.00821 µM and 0.0149 µM; in [10], 4.97 nM. Besides, the TGI is 40.8 µM in assay [1]; 20.1 µM in assay [2]; 27.9 µM in assay [3]; greater than 100 µM in assay [4]; 18.3 µM in assay [5]; greater than 100 µM in [6]. The TGI in assay [7] is 23.7 µM; in assay [8], 30.3 µM; in [9], 45.2 µM; in assay [10], greater than 100 µM.

On to `O=C(/C=C(\[O-])c1ccccc1)CCCCCCC(=O)/C=C(\[O-])c1ccccc1.O=C(/C=C(\[O-])c1ccccc1)CCCCCCC(=O)/C=C(\[O-])c1ccccc1.O=C(/C=C(\[O-])c1ccccc1)CCCCCCC(=O)/C=C(\[O-])c1ccccc1.[Nd+3].[Nd+3]`, for which the GI50 was greater than 50000 nM in [1]; 3300 nM in [2]; greater than 50000 nM in [3]; greater than 50000 nM in assay [4]; greater than 50 µM in assay [5]; greater than 50000 nM in [6]. Moreover, the GI50 is greater than 50 µM in assay [7], greater than 50 µM in [8], greater than 50 µM in [9] and greater than 50000 nM in assay [10]. In addition, the TGI in assay [1], in assay [2], in [3], in assay [4], in [5] and in assay [6] was greater than 50 µM in each case. Besides, the TGI in [7], in assay [8], in [9] and in assay [10] was greater than 50 µM in each case.

Take `CN(C)c1ccc(C2CC(C)(O)Oc3cc4c(cc32)OCO4)cc1` (stereo not drawn): the TGI was greater than 100 µM in assay [1]; 75.1 µM in [2]; greater than 100 µM in assay [3]; greater than 100 µM in [4]; 76.1 µM in assay [5]; greater than 100 µM in assay [6]. Moreover, the TGI in assay [7], in [8], in [9] and in assay [10] was greater than 100 µM in each case.

For the compound `CC1=CCN(c2ccccn2)OC1c1ccccc1` (stereo not drawn), the TGI in assay [1], in assay [2], in [3], in assay [4], in assay [5] and in [6] was greater than 100 µM each time. Further, the TGI in assay [7], in [8], in assay [9] and in assay [10] was greater than 100 µM in each case.
